Data set [1] addresses T1, D(2) dopamine receptor (Homo sapiens, UniProt P14416). The data set can be described thus: biochemical.
In data set [2] the target is T2, 5-hydroxytryptamine receptor 6 (Homo sapiens, UniProt P50406). The data set is described as follows: biochemical.
Data set [3] deals with T3, Muscarinic acetylcholine receptor M1 (Homo sapiens) (UniProt P11229).
T3 sequence (whole entry): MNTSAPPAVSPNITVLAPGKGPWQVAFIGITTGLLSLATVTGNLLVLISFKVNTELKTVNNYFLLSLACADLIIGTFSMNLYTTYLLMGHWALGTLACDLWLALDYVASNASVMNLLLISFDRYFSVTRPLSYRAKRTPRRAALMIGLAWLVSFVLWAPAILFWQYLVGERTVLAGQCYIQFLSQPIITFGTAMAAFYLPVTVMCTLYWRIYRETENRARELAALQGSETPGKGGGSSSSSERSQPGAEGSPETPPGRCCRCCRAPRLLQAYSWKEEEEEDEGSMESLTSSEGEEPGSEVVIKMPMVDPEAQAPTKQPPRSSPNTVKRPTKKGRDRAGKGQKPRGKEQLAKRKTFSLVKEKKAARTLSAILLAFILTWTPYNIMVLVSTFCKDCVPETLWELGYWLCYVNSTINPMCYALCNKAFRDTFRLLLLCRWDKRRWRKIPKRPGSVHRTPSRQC
The data set is described as follows: Inhibition of muscarinic M1 receptor (unknown origin) assessed as reduction in control ligand binding at 1 uM.

Another data set has as its target hERG (KCNH2) (Homo sapiens, UniProt Q12809). The data set can be described thus: Inhibition of human ERG expressed in CHO cells assessed as reduction in channel current at holding potential of 0 mV at 1 uM by electrophysiological method. Particulars: CHO cells expressing human ERG. Format: cell-based.
In data set [4] the target is T1, D(2) dopamine receptor. The data set can be described thus: Agonist activity at human dopamine D2 receptor expressed in CHOK1 cells assessed as calcium mobilization at 1 uM by radiometric and luminescence plate counting method. Format: functional, cell-based. Conditions: CHO-K1.
Data set [5] deals with T1, D(2) dopamine receptor. The data set is described as follows: Antagonist activity at human dopamine D2 receptor expressed in CHOK1 cells assessed as inhibition of apomorphine-induced calcium mobilization at 1 uM by radiometric and luminescence plate counting method. The data set is classed as functional, cell-based. Conditions: CHO-K1. On the technique in general: A change in cytosolic calcium serves as a functional read-out for many receptors and channels.

The target of data set [6] is T2, 5-hydroxytryptamine receptor 6. The data set can be described thus: Agonist activity at human 5-HT6 receptor expressed in CHOK1 cells assessed as calcium mobilization at 1 uM by radiometric and luminescence plate counting method. The data set is classed as functional, cell-based. Particulars: CHO-K1.
Data set [7] deals with Rattus norvegicus. The data set is described as follows: Anxiolytic activity in intraperitoneally dosed 3-months old Wistar rat by Vogel's conflict drinking test. Format: functional. Conditions: ip, read-out: MED.
Data set [8] deals with Rattus norvegicus. The data set is described as follows: Anti-depressant-like activity in intraperitoneally dosed 3-months old Wistar rat by Porsolt's forced swim test. Conditions: ip, read-out: MED. Format: functional.

The structures appear in SMILES notation.

T2 sequence (P50406 whole entry): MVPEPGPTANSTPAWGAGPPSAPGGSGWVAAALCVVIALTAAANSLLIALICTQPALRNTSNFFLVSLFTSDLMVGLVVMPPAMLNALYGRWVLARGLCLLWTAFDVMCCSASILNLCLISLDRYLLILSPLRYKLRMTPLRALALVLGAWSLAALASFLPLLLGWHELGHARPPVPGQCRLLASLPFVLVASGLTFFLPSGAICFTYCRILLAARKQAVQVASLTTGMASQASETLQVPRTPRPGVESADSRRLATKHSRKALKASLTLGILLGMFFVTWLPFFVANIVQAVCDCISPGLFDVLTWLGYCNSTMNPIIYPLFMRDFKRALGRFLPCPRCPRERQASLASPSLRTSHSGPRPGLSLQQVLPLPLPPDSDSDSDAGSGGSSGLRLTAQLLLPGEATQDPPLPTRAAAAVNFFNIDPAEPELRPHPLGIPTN
T1 sequence (P14416 whole entry): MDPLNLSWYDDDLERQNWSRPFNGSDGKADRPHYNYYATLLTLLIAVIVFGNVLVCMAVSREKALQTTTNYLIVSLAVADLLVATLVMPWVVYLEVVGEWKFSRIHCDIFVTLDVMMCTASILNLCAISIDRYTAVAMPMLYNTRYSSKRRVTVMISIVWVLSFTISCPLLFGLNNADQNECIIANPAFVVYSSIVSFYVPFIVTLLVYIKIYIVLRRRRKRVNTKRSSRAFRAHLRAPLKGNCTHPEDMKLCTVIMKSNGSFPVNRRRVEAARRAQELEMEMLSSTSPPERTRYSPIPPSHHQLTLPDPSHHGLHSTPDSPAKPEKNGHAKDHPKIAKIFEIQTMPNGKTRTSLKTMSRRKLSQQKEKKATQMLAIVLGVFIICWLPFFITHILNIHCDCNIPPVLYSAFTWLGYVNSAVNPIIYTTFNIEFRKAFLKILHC
Sequence of hERG (KCNH2) (Q12809 whole entry): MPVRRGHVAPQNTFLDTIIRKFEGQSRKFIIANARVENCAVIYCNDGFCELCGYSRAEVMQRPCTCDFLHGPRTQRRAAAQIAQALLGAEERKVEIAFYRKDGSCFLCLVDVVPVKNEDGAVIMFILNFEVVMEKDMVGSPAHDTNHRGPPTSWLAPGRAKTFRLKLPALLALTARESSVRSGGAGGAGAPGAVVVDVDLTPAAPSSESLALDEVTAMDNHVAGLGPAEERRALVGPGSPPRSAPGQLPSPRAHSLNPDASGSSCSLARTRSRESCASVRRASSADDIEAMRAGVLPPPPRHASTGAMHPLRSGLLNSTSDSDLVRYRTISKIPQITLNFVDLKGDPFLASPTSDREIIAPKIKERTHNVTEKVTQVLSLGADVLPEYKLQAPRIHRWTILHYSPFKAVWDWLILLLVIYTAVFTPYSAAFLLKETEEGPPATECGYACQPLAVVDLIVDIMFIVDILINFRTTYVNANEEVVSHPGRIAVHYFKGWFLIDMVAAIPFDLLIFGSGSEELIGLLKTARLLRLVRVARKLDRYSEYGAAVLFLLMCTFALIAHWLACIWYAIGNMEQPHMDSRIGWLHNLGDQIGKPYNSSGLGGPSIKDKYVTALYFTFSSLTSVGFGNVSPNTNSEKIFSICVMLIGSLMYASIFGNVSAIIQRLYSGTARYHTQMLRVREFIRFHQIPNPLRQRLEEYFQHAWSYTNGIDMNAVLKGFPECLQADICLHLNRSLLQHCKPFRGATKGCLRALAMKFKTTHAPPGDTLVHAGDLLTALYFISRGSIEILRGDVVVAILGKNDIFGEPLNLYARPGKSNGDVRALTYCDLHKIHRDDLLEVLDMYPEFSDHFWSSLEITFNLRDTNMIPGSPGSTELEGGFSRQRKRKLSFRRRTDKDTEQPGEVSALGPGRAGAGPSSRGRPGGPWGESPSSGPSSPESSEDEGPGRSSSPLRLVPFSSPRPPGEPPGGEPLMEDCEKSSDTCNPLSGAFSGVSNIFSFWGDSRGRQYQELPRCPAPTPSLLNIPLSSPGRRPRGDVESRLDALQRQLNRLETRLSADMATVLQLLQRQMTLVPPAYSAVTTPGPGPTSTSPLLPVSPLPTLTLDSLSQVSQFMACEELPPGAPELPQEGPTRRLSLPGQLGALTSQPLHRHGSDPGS

What is called Ki is a measure of affinity in units of concentration, obtained from inhibition or displacement. For the compound `O=C1CCc2ccc(OCCCCN3CCN(c4cccc5c4ccn5Cc4ccccc4F)CC3)cc2N1`, the Ki at D(2) dopamine receptor [1] came to 0.011 µM; in data set [2], 0.045 µM.

With `CC(C)Oc1ccccc1OCCCCN1CCN(c2cccc3c2ccn3S(=O)(=O)c2ccccc2)CC1`, the figures for the Ki (at D(2) dopamine receptor [1]; in data set [2]) were 0.12 µM and 0.011 µM, respectively.

The inhibition is the relative decrease from the control value, in per cent. As for `O=C1CCc2ccc(OCCCCN3CCN(c4cccc5c4ccn5Cc4ccccc4)CC3)cc2N1`, the Ki amounted to 0.02 µM on D(2) dopamine receptor [1] and 0.013 µM in data set [2]. Besides, the inhibition was determined as 99% in data set [3], 42% at D(2) dopamine receptor [4], 97% at D(2) dopamine receptor [5] and 0% in data set [6]. Besides, the inhibition at 1 µM on hERG (KCNH2) amounted to 14%.

With `O=C1CCc2ccc(OCCCCN3CCC(c4cn(S(=O)(=O)c5ccccc5)c5ccccc45)CC3)cc2N1`, the Ki at D(2) dopamine receptor [1] was determined as 0.014 µM; in [2], 0.14 µM.

As to `O=C1CCc2ccc(OCCCCN3CCN(c4cccc5c4ccn5S(=O)(=O)c4ccccc4)CC3)cc2N1`, the inhibition in data set [3] worked out at 37%; at D(2) dopamine receptor [4], 48%; at D(2) dopamine receptor [5], 100%; in data set [6], 0%. Also, at hERG (KCNH2), the inhibition at 1 µM is 13%. The compound further showed a Ki in data set [2] of 0.0004 µM.

For `O=C1CCc2ccc(OCCCCNCCc3cn(S(=O)(=O)c4ccccc4)c4ccccc34)cc2N1`, the Ki came to 0.12 µM on D(2) dopamine receptor [1] and 0.052 µM in [2].

`NC(=O)c1ccccc1OCCCNCCc1cn(Cc2ccccc2)c2ccccc12`: the Ki on D(2) dopamine receptor [1] worked out at 0.27 µM; in [2], 0.68 µM.

For `NC(=O)c1ccccc1OCCCN1CCN(c2cccc3c2ccn3Cc2cccc(Cl)c2)CC1`, the Ki at D(2) dopamine receptor [1] amounted to 0.076 µM; in data set [2] it was 0.0126 µM.

For the compound `O=S(=O)(c1ccccc1)n1ccc2c(N3CCN(CCCOc4ccc5ccoc5c4)CC3)cccc21`, the Ki amounted to 0.22 µM on D(2) dopamine receptor [1] and 0.0038 µM in data set [2].

Take `NC(=O)c1ccccc1OCCCN1CCN(c2cccc3c2ccn3Cc2ccc(F)cc2)CC1`: the Ki at D(2) dopamine receptor [1] was found to be 0.044 µM; in data set [2], 0.083 µM.

Turning to `NC(=O)c1ccccc1OCCCN1CCN(c2cccc3c2ccn3Cc2ccccc2F)CC1`, the affinity in [2], expressed as Ki, was 0.023 µM. This lies in the double-digit nanomolar range.

Regarding `NC(=O)c1ccccc1OCCCN1CCC(c2cn(S(=O)(=O)c3ccccc3)c3ccccc23)CC1`, the Ki at D(2) dopamine receptor [1] worked out at 0.062 µM; in data set [2], 0.057 µM.

With `O=C1CCc2ccc(OCCCCN3CCN(c4cccc5c4ccn5Cc4cccc(F)c4)CC3)cc2N1`, the values for the Ki (on D(2) dopamine receptor [1]; in data set [2]) were 0.0061 µM and 0.02 µM, respectively. Besides, the inhibition in data set [3] stood at 94%; at D(2) dopamine receptor [4], 39%; on D(2) dopamine receptor [5], 99%; in data set [6], 0%. Further, at hERG (KCNH2), the inhibition at 1 µM is 18%.

As for `O=C1CCc2ccc(OCCCCN3CC=C(c4cn(Cc5ccccc5)c5ccccc45)CC3)cc2N1`, the Ki on D(2) dopamine receptor [1] stood at 0.073 µM; in [2] it was 0.022 µM.

As to `O=S(=O)(c1ccccc1)n1ccc2c(N3CCN(CCCOc4ccc(F)cc4)CC3)cccc21`, the Ki at D(2) dopamine receptor [1] was 0.067 µM; in data set [2], 0.0054 µM.

For `O=C1CCc2ccc(OCCCCN3CCN(c4cccc5c4ccn5Cc4cccc(Cl)c4)CC3)cc2N1`, the inhibition in data set [3] was determined as 78%; on D(2) dopamine receptor [4] it was 37%; at D(2) dopamine receptor [5] it was 99%; in data set [6], 0%. Further, the inhibition at 1 µM at hERG (KCNH2) was found to be 9%.

Turning to `O=C1CCc2ccc(OCCCCNCCc3cn(Cc4ccccc4)c4ccccc34)cc2N1`, the Ki on D(2) dopamine receptor [1] was 0.07 µM; in data set [2], 0.15 µM.

On to `COc1ccc(NS(=O)(=O)c2sc3ccc(Cl)cc3c2C)cc1N1CCNCC1`, for which the values for the minimal effective dose in the data set with Rattus norvegicus [7] and in the data set with Rattus norvegicus [8] were 3 mg/kg and 10 mg/kg, respectively.

With `NC(=O)c1ccccc1OCCCN1CC=C(c2cn(Cc3ccccc3)c3ccccc23)CC1`, the Ki is 0.031 µM at D(2) dopamine receptor [1] and 0.59 µM in [2].

`CC(C)Oc1ccccc1OCCCN1CCN(c2cccc3c2ccn3S(=O)(=O)c2ccccc2)CC1`: the Ki at D(2) dopamine receptor [1] stood at 0.11 µM; in [2], 0.0017 µM.

As for `O=S(=O)(c1ccccc1)n1ccc2c(N3CCN(CCCCOc4ccccc4)CC3)cccc21`, the results for the Ki (at D(2) dopamine receptor [1]; in [2]) were 0.062 µM and 0.016 µM, respectively.

In the case of `O=C1CCc2ccc(OCCCN3CCN(c4cccc5c4ccn5S(=O)(=O)c4ccccc4)CC3)cc2N1`, the figures for the Ki (at D(2) dopamine receptor [1]; in data set [2]) were 0.023 µM and 0.0023 µM, respectively.

For `NC(=O)c1ccccc1OCCCN1CCN(c2cccc3c2ccn3Cc2cccc(F)c2)CC1`, the Ki on D(2) dopamine receptor [1] turned out to be 0.045 µM; in [2] it was 0.0099 µM.

Take `O=C1CCc2ccc(OCCCCN3CCN(c4cccc5c4ccn5Cc4ccc(F)cc4)CC3)cc2N1`: the Ki was determined as 0.012 µM at D(2) dopamine receptor [1] and 0.1 µM in data set [2].

For `NC(=O)c1ccccc1OCCCNCCc1cn(S(=O)(=O)c2ccccc2)c2ccccc12`, the Ki came to 0.18 µM at D(2) dopamine receptor [1] and 0.062 µM in data set [2].

For `NC(=O)c1ccccc1OCCCN1CC=C(c2cn(S(=O)(=O)c3ccccc3)c3ccccc23)CC1`, the Ki on D(2) dopamine receptor [1] is 0.16 µM; in data set [2], 0.033 µM.

For the compound `O=C1CCc2ccc(OCCCCN3CCC(c4cn(Cc5ccccc5)c5ccccc45)CC3)cc2N1`, the Ki amounted to 0.0048 µM on D(2) dopamine receptor [1] and 0.15 µM in data set [2].

Consider `NC(=O)c1ccccc1OCCCN1CCC(c2cn(Cc3ccccc3)c3ccccc23)CC1`, for which the Ki on D(2) dopamine receptor [1] amounted to 0.029 µM; in [2] it was 0.49 µM.

For `O=S(=O)(c1ccccc1)n1ccc2c(N3CCN(CCCCOc4ccc(F)cc4)CC3)cccc21`, the Ki on D(2) dopamine receptor [1] worked out at 0.047 µM; in [2], 0.0069 µM.

On to `NC(=O)c1ccccc1OCCCN1CCN(c2cccc3c2ccn3Cc2ccccc2)CC1`, for which the values for the Ki (at D(2) dopamine receptor [1]; in data set [2]) were 0.095 µM and 0.024 µM, respectively.

With `O=C1CCc2ccc(OCCCCN3CC=C(c4cn(S(=O)(=O)c5ccccc5)c5ccccc45)CC3)cc2N1`, the Ki on D(2) dopamine receptor [1] amounted to 0.04 µM; in data set [2], 0.052 µM.

Regarding `O=S(=O)(c1ccccc1)n1ccc2c(N3CCN(CCCOc4ccccc4)CC3)cccc21`, the values for the inhibition constant (Ki) (at D(2) dopamine receptor [1]; in data set [2]) were 0.29 µM and 0.0076 µM, respectively.

As to `NC(=O)c1ccccc1OCCCCN1CCN(c2cccc3c2ccn3S(=O)(=O)c2ccccc2)CC1`, the Ki stood at 0.078 µM at D(2) dopamine receptor [1] and 0.0028 µM in data set [2].

Source of the values: ChEMBL document CHEMBL3407464, “Novel 5-HT6 receptor antagonists/D2 receptor partial agonists targeting behavioral and psychological symptoms of dementia” (Eur J Med Chem, 2015).
